Paper PMC6704710, “Preclinical evaluation of 3D185, a novel potent inhibitor of FGFR1/2/3 and CSF-1R, in FGFR-dependent and macrophage-dominant cancer models” (Journal of Experimental & Clinical Cancer Research : CR, 2019)

Experiments:
Experiment in all cases: Eurofins kinase panel
Type in all cases: biochemical
Conditions in all cases: read-out: Inhibition rate (%)
[1] = biological target: T1, AMPKα1(h) (Homo sapiens, UniProt Q13131)
T1 construct: purchased Eurofins (KinaseProfiler)
Protocol: (§1) Active FGFR1–4, VEGFR1, KDR, VEGFR3, PDGFRα and PDGFRβ proteins were purchased from Eurofins (Fremont, United States), and kinase activity was assessed using ELISA, as previously reported. […]. Increasing concentrations of ATP were diluted for the kinase reaction in the ATP competition assay. CSF-1R kinase activity was analyzed using the Z’-LYTE™ Kinase Assay Kit (Thermo Fisher, United States). The assay formats are described in the SelectScreen Kinase Profiling Service Zlyte protocol. IC50 values were calculated by dose-response curve fitting using Prism (Graph Pad).

[2] = biological target: T2, EphB2(h) (Homo sapiens, UniProt P29323)
T2 construct: purchased Eurofins (KinaseProfiler)
T2 sequence (P29323 19-1055): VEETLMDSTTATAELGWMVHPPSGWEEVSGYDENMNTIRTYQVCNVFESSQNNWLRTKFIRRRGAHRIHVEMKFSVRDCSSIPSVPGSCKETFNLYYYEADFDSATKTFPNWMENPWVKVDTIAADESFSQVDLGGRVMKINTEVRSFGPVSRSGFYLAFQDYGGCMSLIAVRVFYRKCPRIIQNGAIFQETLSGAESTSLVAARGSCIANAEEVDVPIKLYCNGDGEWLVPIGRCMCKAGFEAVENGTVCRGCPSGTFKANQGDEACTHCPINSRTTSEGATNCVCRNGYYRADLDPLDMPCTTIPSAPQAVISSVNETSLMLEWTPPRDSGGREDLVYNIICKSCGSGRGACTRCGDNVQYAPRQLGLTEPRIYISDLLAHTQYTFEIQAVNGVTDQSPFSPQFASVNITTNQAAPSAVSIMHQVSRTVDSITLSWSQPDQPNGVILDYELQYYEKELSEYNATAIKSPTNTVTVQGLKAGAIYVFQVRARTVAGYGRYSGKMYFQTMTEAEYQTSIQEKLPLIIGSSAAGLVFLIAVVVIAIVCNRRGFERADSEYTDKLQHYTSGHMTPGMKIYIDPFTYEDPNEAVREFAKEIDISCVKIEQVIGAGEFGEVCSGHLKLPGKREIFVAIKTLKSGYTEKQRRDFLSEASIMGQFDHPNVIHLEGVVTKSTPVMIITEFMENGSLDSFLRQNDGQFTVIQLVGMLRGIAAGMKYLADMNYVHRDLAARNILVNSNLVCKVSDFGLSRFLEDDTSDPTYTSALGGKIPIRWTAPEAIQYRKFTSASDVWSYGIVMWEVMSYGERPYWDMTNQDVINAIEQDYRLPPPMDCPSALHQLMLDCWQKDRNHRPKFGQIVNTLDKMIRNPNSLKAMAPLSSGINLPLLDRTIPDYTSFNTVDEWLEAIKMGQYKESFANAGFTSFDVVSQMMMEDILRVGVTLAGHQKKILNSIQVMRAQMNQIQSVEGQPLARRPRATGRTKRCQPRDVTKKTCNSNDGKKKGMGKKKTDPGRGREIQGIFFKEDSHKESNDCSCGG
Protocol: as §1

[3] = biological target: T3, FGFR4(h) (Homo sapiens, UniProt P22455)
T3 construct: purchased Eurofins (KinaseProfiler)
Protocol: as §1

[4] = biological target: T4, GRK6(h) (Homo sapiens, UniProt P43250)
T4 construct: purchased Eurofins (KinaseProfiler)
Protocol: as §1

[5] = biological target: T5, PAK3(h) (Homo sapiens, UniProt O75914)
T5 construct: purchased Eurofins (KinaseProfiler)
Protocol: as §1

[6] = biological target: T6, PIP5K1γ(h) (Homo sapiens, UniProt O60331)
T6 construct: purchased Eurofins (KinaseProfiler)
Protocol: as §1

[7] = biological target: T7, Rse(h) (Homo sapiens, UniProt Q06418)
T7 construct: purchased Eurofins (KinaseProfiler)
T7 sequence (Q06418 41-890): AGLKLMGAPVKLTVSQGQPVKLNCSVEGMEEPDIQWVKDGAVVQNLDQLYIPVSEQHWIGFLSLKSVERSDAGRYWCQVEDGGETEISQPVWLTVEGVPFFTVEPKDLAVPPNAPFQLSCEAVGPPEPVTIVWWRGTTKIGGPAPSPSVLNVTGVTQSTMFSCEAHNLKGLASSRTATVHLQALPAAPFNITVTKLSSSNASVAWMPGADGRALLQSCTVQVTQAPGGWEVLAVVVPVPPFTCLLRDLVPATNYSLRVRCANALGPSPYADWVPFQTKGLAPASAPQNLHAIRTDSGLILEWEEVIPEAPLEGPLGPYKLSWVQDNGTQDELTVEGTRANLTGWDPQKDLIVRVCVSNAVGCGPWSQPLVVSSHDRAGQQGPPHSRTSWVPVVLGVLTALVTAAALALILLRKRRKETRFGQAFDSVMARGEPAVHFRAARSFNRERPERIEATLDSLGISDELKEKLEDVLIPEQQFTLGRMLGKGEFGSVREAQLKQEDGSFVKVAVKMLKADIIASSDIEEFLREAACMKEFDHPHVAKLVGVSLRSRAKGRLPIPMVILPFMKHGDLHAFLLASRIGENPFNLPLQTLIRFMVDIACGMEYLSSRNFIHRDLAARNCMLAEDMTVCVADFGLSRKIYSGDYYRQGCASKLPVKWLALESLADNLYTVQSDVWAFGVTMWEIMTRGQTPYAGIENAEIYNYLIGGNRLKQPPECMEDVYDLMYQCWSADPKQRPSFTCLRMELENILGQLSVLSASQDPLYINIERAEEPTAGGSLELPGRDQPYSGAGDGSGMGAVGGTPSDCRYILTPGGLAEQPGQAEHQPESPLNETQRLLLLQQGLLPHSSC
Protocol: as §1

[8] = biological target: T8, SRPK2(h) (Homo sapiens, UniProt P78362)
T8 construct: purchased Eurofins (KinaseProfiler)
Protocol: as §1

T3 sequence (P22455 22-802): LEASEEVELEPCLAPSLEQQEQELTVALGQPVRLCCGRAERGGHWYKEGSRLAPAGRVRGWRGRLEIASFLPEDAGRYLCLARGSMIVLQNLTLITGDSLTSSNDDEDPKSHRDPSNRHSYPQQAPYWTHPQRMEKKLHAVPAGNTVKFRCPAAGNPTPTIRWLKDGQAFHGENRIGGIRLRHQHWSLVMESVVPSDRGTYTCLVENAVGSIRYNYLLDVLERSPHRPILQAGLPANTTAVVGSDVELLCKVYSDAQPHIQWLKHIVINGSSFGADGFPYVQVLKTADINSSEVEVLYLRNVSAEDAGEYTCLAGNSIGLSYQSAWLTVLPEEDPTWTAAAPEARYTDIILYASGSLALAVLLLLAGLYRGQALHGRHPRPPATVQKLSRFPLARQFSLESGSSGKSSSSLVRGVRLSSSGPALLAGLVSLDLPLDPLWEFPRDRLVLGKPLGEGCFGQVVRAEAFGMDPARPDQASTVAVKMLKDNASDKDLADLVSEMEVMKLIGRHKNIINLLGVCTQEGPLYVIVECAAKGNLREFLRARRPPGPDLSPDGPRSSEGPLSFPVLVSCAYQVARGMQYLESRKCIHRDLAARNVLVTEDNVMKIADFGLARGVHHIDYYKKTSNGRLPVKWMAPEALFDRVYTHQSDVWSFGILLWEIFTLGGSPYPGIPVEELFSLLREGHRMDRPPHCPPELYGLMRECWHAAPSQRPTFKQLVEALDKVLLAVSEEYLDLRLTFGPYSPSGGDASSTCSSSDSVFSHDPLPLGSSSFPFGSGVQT
T4 sequence (P43250 whole entry): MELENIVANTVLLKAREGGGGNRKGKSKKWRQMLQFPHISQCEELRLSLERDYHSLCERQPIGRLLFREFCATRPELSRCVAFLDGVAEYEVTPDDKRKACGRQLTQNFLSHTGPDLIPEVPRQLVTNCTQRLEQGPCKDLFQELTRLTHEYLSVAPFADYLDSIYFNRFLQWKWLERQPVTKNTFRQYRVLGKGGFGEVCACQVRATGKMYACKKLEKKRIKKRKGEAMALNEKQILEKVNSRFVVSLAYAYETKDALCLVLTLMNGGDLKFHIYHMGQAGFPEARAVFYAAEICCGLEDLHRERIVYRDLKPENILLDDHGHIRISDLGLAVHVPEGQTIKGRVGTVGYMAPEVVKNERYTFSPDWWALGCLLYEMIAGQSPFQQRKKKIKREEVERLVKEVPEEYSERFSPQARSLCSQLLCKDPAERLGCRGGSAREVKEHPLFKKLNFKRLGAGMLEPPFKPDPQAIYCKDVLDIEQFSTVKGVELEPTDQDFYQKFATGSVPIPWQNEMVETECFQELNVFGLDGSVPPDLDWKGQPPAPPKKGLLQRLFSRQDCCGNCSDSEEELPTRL
T6 sequence (O60331 whole entry): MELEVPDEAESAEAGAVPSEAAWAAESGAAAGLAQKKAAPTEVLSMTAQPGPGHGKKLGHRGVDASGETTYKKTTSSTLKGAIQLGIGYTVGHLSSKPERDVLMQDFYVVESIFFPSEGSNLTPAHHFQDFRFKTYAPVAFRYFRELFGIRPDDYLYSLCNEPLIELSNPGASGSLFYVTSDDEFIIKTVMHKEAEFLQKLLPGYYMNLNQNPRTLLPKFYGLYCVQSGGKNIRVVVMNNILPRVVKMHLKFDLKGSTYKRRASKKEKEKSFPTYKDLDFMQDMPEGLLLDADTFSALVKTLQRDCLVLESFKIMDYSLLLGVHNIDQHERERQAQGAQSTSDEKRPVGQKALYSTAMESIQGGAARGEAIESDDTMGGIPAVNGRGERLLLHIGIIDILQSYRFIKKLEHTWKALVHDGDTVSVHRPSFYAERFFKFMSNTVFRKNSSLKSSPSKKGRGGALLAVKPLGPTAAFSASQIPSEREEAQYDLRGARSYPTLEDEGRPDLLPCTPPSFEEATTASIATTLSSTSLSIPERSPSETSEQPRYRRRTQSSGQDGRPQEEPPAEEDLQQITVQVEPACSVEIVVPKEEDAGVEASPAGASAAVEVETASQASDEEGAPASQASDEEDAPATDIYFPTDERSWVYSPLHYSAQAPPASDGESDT
T5 sequence (O75914 whole entry): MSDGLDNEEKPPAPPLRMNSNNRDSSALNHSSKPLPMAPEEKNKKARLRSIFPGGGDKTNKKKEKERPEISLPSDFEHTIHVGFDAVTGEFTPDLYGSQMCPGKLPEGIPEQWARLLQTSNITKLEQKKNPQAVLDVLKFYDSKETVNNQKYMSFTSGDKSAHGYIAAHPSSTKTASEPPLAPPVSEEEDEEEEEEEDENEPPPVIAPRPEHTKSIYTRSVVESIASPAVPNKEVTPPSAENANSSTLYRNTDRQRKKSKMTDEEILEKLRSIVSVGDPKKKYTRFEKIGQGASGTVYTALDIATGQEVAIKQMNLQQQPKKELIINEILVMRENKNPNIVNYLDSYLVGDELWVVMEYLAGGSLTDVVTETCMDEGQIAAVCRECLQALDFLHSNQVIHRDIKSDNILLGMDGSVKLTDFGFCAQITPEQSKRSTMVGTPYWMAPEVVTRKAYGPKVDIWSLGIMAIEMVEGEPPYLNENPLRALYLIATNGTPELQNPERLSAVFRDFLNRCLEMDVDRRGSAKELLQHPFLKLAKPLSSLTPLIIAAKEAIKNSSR
T8 sequence (P78362 whole entry): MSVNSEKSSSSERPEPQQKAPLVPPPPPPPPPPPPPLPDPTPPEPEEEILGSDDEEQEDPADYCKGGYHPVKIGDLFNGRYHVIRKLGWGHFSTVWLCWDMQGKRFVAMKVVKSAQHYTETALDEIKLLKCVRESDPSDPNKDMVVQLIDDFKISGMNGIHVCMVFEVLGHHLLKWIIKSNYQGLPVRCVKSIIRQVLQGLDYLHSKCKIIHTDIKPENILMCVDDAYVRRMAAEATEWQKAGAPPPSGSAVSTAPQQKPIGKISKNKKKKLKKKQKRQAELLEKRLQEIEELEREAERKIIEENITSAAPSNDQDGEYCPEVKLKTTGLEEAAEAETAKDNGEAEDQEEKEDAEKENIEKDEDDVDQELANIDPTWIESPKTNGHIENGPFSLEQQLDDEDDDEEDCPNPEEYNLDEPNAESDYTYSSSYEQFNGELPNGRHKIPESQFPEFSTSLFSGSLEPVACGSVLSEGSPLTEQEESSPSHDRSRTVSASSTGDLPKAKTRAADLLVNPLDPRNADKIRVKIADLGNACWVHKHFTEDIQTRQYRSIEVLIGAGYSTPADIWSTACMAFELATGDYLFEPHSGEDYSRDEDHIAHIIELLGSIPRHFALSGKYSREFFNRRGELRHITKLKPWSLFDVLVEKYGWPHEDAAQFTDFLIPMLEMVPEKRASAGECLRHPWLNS
T1 sequence (Q13131 whole entry): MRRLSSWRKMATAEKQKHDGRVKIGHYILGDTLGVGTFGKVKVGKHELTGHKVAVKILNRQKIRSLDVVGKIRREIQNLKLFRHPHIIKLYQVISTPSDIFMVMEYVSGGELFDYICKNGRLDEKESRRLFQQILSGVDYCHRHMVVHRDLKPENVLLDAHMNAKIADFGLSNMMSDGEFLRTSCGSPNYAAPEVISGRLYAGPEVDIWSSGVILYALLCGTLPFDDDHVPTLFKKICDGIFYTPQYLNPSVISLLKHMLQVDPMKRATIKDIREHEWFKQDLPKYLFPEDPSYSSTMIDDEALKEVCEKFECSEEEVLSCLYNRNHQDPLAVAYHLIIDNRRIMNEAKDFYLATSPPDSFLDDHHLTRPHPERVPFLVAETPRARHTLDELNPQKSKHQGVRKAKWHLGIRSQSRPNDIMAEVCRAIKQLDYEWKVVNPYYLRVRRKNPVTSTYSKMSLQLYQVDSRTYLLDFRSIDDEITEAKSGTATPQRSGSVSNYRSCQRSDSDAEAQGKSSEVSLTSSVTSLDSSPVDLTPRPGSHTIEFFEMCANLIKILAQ
T1 sequence (Q9Y478 whole entry partner): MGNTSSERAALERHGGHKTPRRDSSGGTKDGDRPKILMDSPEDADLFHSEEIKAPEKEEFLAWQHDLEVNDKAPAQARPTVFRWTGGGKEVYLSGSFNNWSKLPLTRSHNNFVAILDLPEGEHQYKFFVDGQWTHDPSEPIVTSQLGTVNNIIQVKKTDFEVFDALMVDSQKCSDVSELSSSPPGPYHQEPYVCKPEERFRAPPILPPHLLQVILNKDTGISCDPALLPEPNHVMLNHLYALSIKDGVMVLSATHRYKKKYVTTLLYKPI
T1 sequence (P54619 whole entry partner): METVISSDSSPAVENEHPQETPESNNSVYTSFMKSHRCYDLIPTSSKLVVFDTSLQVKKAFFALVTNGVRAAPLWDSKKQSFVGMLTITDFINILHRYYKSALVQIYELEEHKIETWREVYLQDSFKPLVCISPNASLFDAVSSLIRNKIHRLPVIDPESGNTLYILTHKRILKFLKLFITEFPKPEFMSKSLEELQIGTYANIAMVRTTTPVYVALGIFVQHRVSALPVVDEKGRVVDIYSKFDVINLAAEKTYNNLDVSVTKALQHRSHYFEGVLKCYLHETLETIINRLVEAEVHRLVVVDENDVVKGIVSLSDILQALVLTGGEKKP

## COc1cc(OC)c(Cl)c(-c2ccc3c(NC(=O)c4ccc(N5CCNC(C)(C)C5)cc4)n[nH]c3n2)c1Cl [3D185]
[1]; 10 nM
  inhibition at 0.01 µM: -8%
[1]; 100 nM
  inhibition at 0.1 µM: -6%
[1]; 1000 nM
  inhibition at 1 µM: -13%
[2]; 10 nM
  inhibition at 0.01 µM: 12%
[2]; 100 nM
  inhibition at 0.1 µM: 6%
[2]; 1000 nM
  inhibition at 1 µM: 15%
[3]; 10 nM
  inhibition at 0.01 µM: 43%
[3]; 100 nM
  inhibition at 0.1 µM: 91%
[3]; 1000 nM
  inhibition at 1 µM: 100%
[4]; 10 nM
  inhibition at 0.01 µM: -4%
[4]; 100 nM
  inhibition at 0.1 µM: -6%
[4]; 1000 nM
  inhibition at 1 µM: -5%
[5]; 10 nM
  inhibition at 0.01 µM: -1%
[5]; 100 nM
  inhibition at 0.1 µM: -3%
[5]; 1000 nM
  inhibition at 1 µM: 7%
[6]; 10 nM
  inhibition at 0.01 µM: 6%
[6]; 100 nM
  inhibition at 0.1 µM: 6%
[6]; 1000 nM
  inhibition at 1 µM: 10%
[7]; 10 nM
  inhibition at 0.01 µM: 5%
[7]; 100 nM
  inhibition at 0.1 µM: -2%
[7]; 1000 nM
  inhibition at 1 µM: 16%
[8]; 10 nM
  inhibition at 0.01 µM: 2%
[8]; 100 nM
  inhibition at 0.1 µM: 2%
[8]; 1000 nM
  inhibition at 1 µM: -7%
